{"source": "patent US9676715B2", "about": "“Bis-indolic derivatives, a process for preparing the same and their uses as a drug” (UNIVERSITE JOSEPH FOURIER, priority 2011, dated 2017)", "key": {"[1]": {"tested_on": "Staphylococcus cohnii (CHUG-Scoh2)", "assay": "MIC, Staphylococcus panel (9.2)", "type": "cell-based", "conditions": "S. cohnii CHUG-Scoh2, 4% DMSO, 18 h", "protocol": "(§1) The microdilution method recommended by the Clinical and Laboratory Standard Institute [M07-A9, Vol. 32, N° 2] was used. The activity of bis-indolic compounds 3f and 4 was tested against 35 Staphylococcus bacterial strains corresponding to 12 different species,\n(§2) Bacterial inocula were prepared in Mueller Hinton broth (MH2, BioMérieux, Marcy L'Etoile, France). They were dispensed in 96 well microtiter plates (5×10^5 CFU/ml of final inoculum, 192 μL per well). Indolic compounds diluted in pure DMSO (8 μL per well, concentrated 25 times) were added to the wells as to obtain two-fold serial concentrations (0.5-32 mg/L of final concentrations). The final concentration of DMSO was 4% in each well.\n(§3) To avoid cross-contaminations in microtiter plates, one row was left blank between each strain tested. Microplates were incubated for 18 h at 37° C. in ambient air. Then MICs were read visually and, in case of visual reading difficulties, confirmed using a spectrophotometer at a wavelength of 630 nm (BioTek® EL808 Absorbance Microplate Reader). MICs corresponded to the minimum bis-indolic compound concentration that allowed complete visual growth inhibition of bacteria. Drug-free cultures served as growth controls.\n(§4) Coagulase-negative Staphylococcus strains included three reference strains purchased from CRBIP: a methicillin-susceptible S. epidermidis strain (ATCC 12228), a methicillin-resistant S. epidermidis strain (ATCC 49461), and a methicillin-susceptible S. sciuri strain (ATCC 29061). We also used clinical strains belonging to the following coagulase-negative Staphylococcus species: S. auricularis (two strains), S. warneri (five strains), S. capitis (five strains), S. haemolyticus (four strains), S. hominis (seven strains), S. cohnii (two strains), and S. saprophyticus, S. caprae and S. simulans (one strain each). Identification of the clinical strains was obtained using VITEK® 2 System (Biomérieux). The specified strain numbers correspond to an internal number of the bacterial strain collection of our laboratory."}, "[2]": {"tested_on": "Staphylococcus hominis (CHUG-Shom3)", "assay": "MIC, Staphylococcus panel (9.2)", "type": "cell-based", "conditions": "S. hominis CHUG-Shom3, 4% DMSO, 18 h", "protocol": "as §1, §2, §3, §4"}, "[3]": {"tested_on": "Staphylococcus warneri (CHUG-Swar6)", "assay": "MIC, Staphylococcus panel (9.2)", "type": "cell-based", "conditions": "S. warneri CHUG-Swar6, 4% DMSO, 18 h", "protocol": "as §1, §2, §3, §4"}, "[4]": {"tested_on": "Staphylococcus haemolyticus (CHUG-Shae4)", "assay": "MIC, Staphylococcus panel (9.2)", "type": "cell-based", "conditions": "S. haemolyticus CHUG-Shae4, 4% DMSO, 18 h", "protocol": "as §1, §2, §3, §4"}, "[5]": {"tested_on": "Staphylococcus saprophyticus (CHUG-Ssap2)", "assay": "MIC, Staphylococcus panel (9.2)", "type": "cell-based", "conditions": "S. saprophyticus CHUG-Ssap2, 4% DMSO, 18 h", "protocol": "as §1, §2, §3, §4"}, "[6]": {"tested_on": "Staphylococcus capitis (CHUG-Scap5)", "assay": "MIC, Staphylococcus panel (9.2)", "type": "cell-based", "conditions": "S. capitis CHUG-Scap5, 4% DMSO, 18 h", "protocol": "as §1, §2, §3, §4"}, "[7]": {"tested_on": "Staphylococcus hominis (CHUG-Shom8)", "assay": "MIC, Staphylococcus panel (9.2)", "type": "cell-based", "conditions": "S. hominis CHUG-Shom8, 4% DMSO, 18 h", "protocol": "as §1, §2, §3, §4"}, "[8]": {"tested_on": "Staphylococcus warneri (CHUG-Swar4)", "assay": "MIC, Staphylococcus panel (9.2)", "type": "cell-based", "conditions": "S. warneri CHUG-Swar4, 4% DMSO, 18 h", "protocol": "as §1, §2, §3, §4"}, "[9]": {"tested_on": "Staphylococcus warneri (CHUG-Swar7)", "assay": "MIC, Staphylococcus panel (9.2)", "type": "cell-based", "conditions": "S. warneri CHUG-Swar7, 4% DMSO, 18 h", "protocol": "as §1, §2, §3, §4"}, "[10]": {"tested_on": "Staphylococcus capitis (CHUG-Scap7)", "assay": "MIC, Staphylococcus panel (9.2)", "type": "cell-based", "conditions": "S. capitis CHUG-Scap7, 4% DMSO, 18 h", "protocol": "as §1, §2, §3, §4"}, "[11]": {"tested_on": "Staphylococcus auricularis (CHUG-Saur3)", "assay": "MIC, Staphylococcus panel (9.2)", "type": "cell-based", "conditions": "S. auricularis CHUG-Saur3, 4% DMSO, 18 h", "protocol": "as §1, §2, §3, §4"}, "[12]": {"tested_on": "Staphylococcus hominis (CHUG-Shom4)", "assay": "MIC, Staphylococcus panel (9.2)", "type": "cell-based", "conditions": "S. hominis CHUG-Shom4, 4% DMSO, 18 h", "protocol": "as §1, §2, §3, §4"}, "[13]": {"tested_on": "Staphylococcus hominis (CHUG-Shom6)", "assay": "MIC, Staphylococcus panel (9.2)", "type": "cell-based", "conditions": "S. hominis CHUG-Shom6, 4% DMSO, 18 h", "protocol": "as §1, §2, §3, §4"}, "[14]": {"tested_on": "Staphylococcus capitis (CHUG-Scap6)", "assay": "MIC, Staphylococcus panel (9.2)", "type": "cell-based", "conditions": "S. capitis CHUG-Scap6, 4% DMSO, 18 h", "protocol": "as §1, §2, §3, §4"}, "[15]": {"tested_on": "Staphylococcus cohnii (CHUG-Scoh1) (MRSA)", "assay": "MIC, Staphylococcus panel (9.2)", "type": "cell-based", "conditions": "S. cohnii CHUG-Scoh1 (MRSA), 4% DMSO, 18 h", "protocol": "as §1, §2, §3, §4"}, "[16]": {"tested_on": "Staphylococcus caprae (CHUG-Scapra1)", "assay": "MIC, Staphylococcus panel (9.2)", "type": "cell-based", "conditions": "S. caprae CHUG-Scapra1, 4% DMSO, 18 h", "protocol": "as §1, §2, §3, §4"}, "[17]": {"tested_on": "Staphylococcus haemolyticus (CHUG-Shae6)", "assay": "MIC, Staphylococcus panel (9.2)", "type": "cell-based", "conditions": "S. haemolyticus CHUG-Shae6, 4% DMSO, 18 h", "protocol": "as §1, §2, §3, §4"}, "[18]": {"tested_on": "Staphylococcus hominis (CHUG-Shom7)", "assay": "MIC, Staphylococcus panel (9.2)", "type": "cell-based", "conditions": "S. hominis CHUG-Shom7, 4% DMSO, 18 h", "protocol": "as §1, §2, §3, §4"}, "[19]": {"tested_on": "Staphylococcus warneri (CHUG-Swar5)", "assay": "MIC, Staphylococcus panel (9.2)", "type": "cell-based", "conditions": "S. warneri CHUG-Swar5, 4% DMSO, 18 h", "protocol": "as §1, §2, §3, §4"}, "S. aureus ATCC 25923": {"tested_on": "S. aureus ATCC 25923", "assay": "Time-kill curves", "type": "cell-based, Staphylococcus aureus", "protocol": "FIG. 2 presents the time-kill curve of compound 3f (tested at MIC×4, 8 or 16) obtained with S. aureus ATCC 25923.\nThe method described by Motyl et al. [M. Motyl, K. Dorso, J. Barrett, R. Giacobbe, Basic Microbiological Techniques Used in Antibacterial Drug Discovery. Current Protocols in Pharmacology. UNIT 13A.3. January, 2006] was used.\nKilling curves corresponded to the measure of the kinetic of bactericidal activity of indolic compounds over time (time-kill curves) or after 18 h incubation of cultures according to different drug concentrations (concentration-killing curves). Sterile tubes were inoculated with: 1/sterile Mueller Hinton broth, to serve as negative control; 2/a drug-free bacterial inoculum, to serve as a growth control; 3/a bacterial inoculum (10^5 CFU/mL of final concentration) with various concentrations of the tested indolic compound. The tubes were incubated at 37° C. with agitation (50 rpm). Bacterial inocula are determined in each tube using the CFU count method at the beginning of the experiments, and then after 18 h for concentration-killing curves, or after 1 h, 2 h, 4 h, 8 h and 18 h for time-kill curves. A significant bactericidal effect corresponds to reduction of the initial bacterial load of 3 logs or more at any time of incubation."}}, "data": [{"smiles": "CC(C)(C)OC(=O)NCC(NC(=O)c1c[nH]c2ccc(Br)cc12)c1c[nH]c2ccc(Br)cc12", "note": "(stereo not drawn) [Compound 3f, tert-Butyl(2-(5-bromo-1H-indol-3-yl)-2-(5-bromo-1H-indolyl-3-carboxamido)ethyl)carbamate]", "values": [{"measurement": "MIC", "setting": "[1]", "result": 16, "unit": "µg/mL"}, {"measurement": "MIC", "setting": "[2]", "result": 16, "unit": "µg/mL"}, {"measurement": "MIC", "setting": "[3]", "result": 8, "unit": "µg/mL"}, {"measurement": "MIC", "setting": "[4]", "result": 16, "unit": "µg/mL"}, {"measurement": "MIC", "setting": "[5]", "result": 8, "unit": "µg/mL"}, {"measurement": "MIC", "setting": "[6]", "result": 16, "unit": "µg/mL"}, {"measurement": "MIC", "setting": "[7]", "result": 8, "unit": "µg/mL"}, {"measurement": "MIC", "setting": "[8]", "result": 8, "unit": "µg/mL"}, {"measurement": "MIC", "setting": "[9]", "result": 8, "unit": "µg/mL"}, {"measurement": "MIC", "setting": "[10]", "result": 16, "unit": "µg/mL"}, {"measurement": "MIC", "setting": "[11]", "result": 8, "unit": "µg/mL"}, {"measurement": "MIC", "setting": "[12]", "result": 8, "unit": "µg/mL"}, {"measurement": "MIC", "setting": "[13]", "result": 8, "unit": "µg/mL"}, {"measurement": "MIC", "setting": "[14]", "result": 8, "unit": "µg/mL"}, {"measurement": "MIC", "setting": "[15]", "result": 16, "unit": "µg/mL"}, {"measurement": "MIC", "setting": "[16]", "result": 8, "unit": "µg/mL"}, {"measurement": "MIC", "setting": "[17]", "result": 16, "unit": "µg/mL"}, {"measurement": "MIC", "setting": "[18]", "result": 8, "unit": "µg/mL"}, {"measurement": "MIC", "setting": "[19]", "result": 8, "unit": "µg/mL"}, {"measurement": "bacterial regrowth (time-kill curve)", "setting": "S. aureus ATCC 25923; 4×MIC, incubation prolonged to 18 h", "result": "progressive bacterial regrowth"}, {"measurement": "bactericidal activity (time-kill curve)", "setting": "S. aureus ATCC 25923; after 8 h incubation, 4×, 8× and 16× the MIC", "result": "significant bactericidal activity"}]}]}
